From patent US20070203233A1, “NOVEL 2-(alpha-N-PENTANONYL)BENZOATES, THEIR PREPARATION AND USE” (priority 2004, published 2007)
Marks after values point to notes of the source that are not given here.

What was measured:
[1] = tested on: model rats of middle cerebral artery thrombosis (MCAT); assay: Effects on neural symptoms of MCAT rats; assay type: in vivo, SD rats; design: key to Scores 6 hours / Scores 24 hours: 0/1 per test, summed (max 4); higher = more severe behavioral disorder; conditions: for Scores 6 hours: behavioral score 6 h after operation (full mark 4); for Scores 24 hours: behavioral score 24 h after operation (full mark 4); for % inhibition at hour 24: vs. model group
Method: (1) Grouping and administration: […] Preventive administration was conducted by gavage one time per day for 3 days prior to the model being established. The model was established on day 4, and a dosage of one day was administered by gavage immediately after the model was established. Another dosage of one day was again administered by gavage 12 hours after the model was established. Equivalent amount of the vehicle was administered to the control group. […] Description of technique and early neuropathological consequences following middle cerebral artery occlusion. J Cereb Blood Flow Metab, 1981, 1: 53), and fixed in lateral decubitus position. A bowtype incision of 1.5 cm long was made at the midpoint between canthus and exterior auditory canal. Temporalis was broken and incised to expose temporal bone. […] The filter paper was removed after 30 min when the vascular became black. The localized tissue was washed with physiological brine, and sutured layer by layer. Then rats were placed back into the cages. By following the modified method of Bederson et al. […] (2) The animals were placed onto a smooth ground, and the resistance of contralateral shoulder to push was examined. “0” was recorded if the resistance of both shoulders were equal and strong; and “1” was recorded if the resistance of contralateral shoulder to push was decreased. […] (4) The tail of the rat was lifted 30 cm high away from the ground, and “1” was recorded if the animals ceaselessly circled contralaterally. “4” was full mark in accordance with the above-mentioned standard. The higher the score was, more severe the behavioral disorder of the animal was. 4. Results: The behavioral scores in each group were compared by student t test.

[2] = tested on: model rats of middle cerebral artery thrombosis (MCAT); assay: Effects on cerebral infarct area of MCAT rats; assay type: in vivo, SD rats; conditions: for Cerebral infarct tissue weight/total brain weight (%): 24 h after operation, TTC staining; for Inhibition (%): cerebral infarct vs. model group
[3] = viscous liquid; cited from earlier work
The Stability to Light = assay type: physicochemical; conditions: 10 days, HPLC
Thermal Stability = assay type: physicochemical; conditions: 60° C., 10 days, HPLC
[4] = tested on: thrombus of artery-vein bypass in rats; assay: Effects on thrombosis of artery-vein bypass in rats; assay type: in vivo, SD rats; conditions: for Dry-weight of thrombus / Wet-weight of thrombus: once per day for 3 days; for Inhibition (%) of dry-weight of thrombus / Inhibition (%) of wet-weight of thrombus: vs. thrombus model group
Method: Testing methods are described in Chen-Qi, “Methodology for Pharmacological Research of Chinese Medicine”,People's Medical Publishing House, Sep. 1993, 1st ed., page 510. […] Equivalent amount of the vehicle was administered to the thrombus model group. The operation was conducted immediately after the final administration. […] The operation was conducted to separate the right common carotid artery and the left external jugular vein. A pre-weighed suture # 0 of 8 cm long was placed into the middle part of a polyethylene tube of 10 cm long. Then the tube was filled with normal saline, and connected at both ends to the cannula of 3 cm long filled with normal saline. One end of the tube was inserted into the left external jugular vein, and another end was inserted into the right common carotid artery. The blood flowed from the right common carotid artery to the polyethylene tube, and then flow back to the left external jugular vein, so as to construct a bypass circulation. […] The wet-weight of the thrombus was obtained by subtracting the weight of the suture and the paper from this total wet weight. […] The thrombus was taken out and weighed to obtain a total dry weight. The dry weight of the thrombus was obtained by subtracting the weight of the suture and the paper form this total dry weight. The results in each group were compared by student's t test. […] Testing Results

in vivo = conditions: both, ICR, mouse, po

Compound | Scores 6 hours ([1]; 50 mg/kg by gavage) | Scores 24 hours ([1]; 50 mg/kg by gavage) | Scores 6 hours ([1]; 100 mg/kg by gavage) | Scores 24 hours ([1]; 100 mg/kg by gavage) | Scores 6 hours ([1]; 200 mg/kg by gavage) | Scores 24 hours ([1]; 200 mg/kg by gavage) | Cerebral infarct tissue weight/total brain weight (%) ([2]; 50 mg/kg by gavage) | Inhibition (%) ([2]; 50 mg/kg by gavage) | Cerebral infarct tissue weight/total brain weight (%) ([2]; 100 mg/kg by gavage) | Inhibition (%) ([2]; 100 mg/kg by gavage) | Cerebral infarct tissue weight/total brain weight (%) ([2]; 200 mg/kg by gavage) | Inhibition (%) ([2]; 200 mg/kg by gavage) | further results
CCCCC1OC(=O)c2ccccc21 (racemic) [DL-3-n-butylphthalide] | 3.36 ± 0.81 | 3.09 ± 0.54 | 3.36 ± 0.50 | 3.09 ± 0.70 | 3.36 ± 0.67 | 3.00 ± 0.89 | 5.66 ± 2.81% | 23.62% | 5.81 ± 1.49 % | 26.83% | 5.52 ± 1.78 % | 27.46% | % inhibition at hour 24 ([1]; 50 mg/kg by gavage): 15.11%; % inhibition at hour 24 ([1]; 100 mg/kg by gavage): 17.16%; % inhibition at hour 24 ([1]; 200 mg/kg by gavage): 19.57%; solubility in water (in words) [3]: insoluble in water
CCCCC(=O)c1ccccc1C(=O)O [Calcium 2-(α-n-pentanonyl)benzoate, calcium 2-(α-n-pentanonyl)benzoate] | 3.18 ± 0.60 | 2.73 ± 0.65**^,s | 3.40 ± 0.52 | 2.90 ± 0.57 | 3.27 ± 0.79 | 2.45 ± 0.82 | 5.01 ± 1.79 % | 32.39% | 5.23 ± 2.04 % | 34.13% | 4.65 ± 2.13 % | 38.90% | decomposed product detected, stability to light (in words) (The Stability to Light): no decomposed product; decomposed product detected, thermal stability (in words) (Thermal Stability): no decomposed product; cerebral infarct as compared with the model group (in words) ([2]; 50 mg/kg, P<0.05): significantly reduced; Dry-weight of thrombus ([4]; 50 mg/kg by gavage): 40.2 ± 18.0 mg; Wet-weight of thrombus ([4]; 50 mg/kg by gavage): 199.8 ± 30.4 mg; Inhibition (%) of dry-weight of thrombus ([4]; 50 mg/kg by gavage): 21.64%; Inhibition (%) of wet-weight of thrombus ([4]; 50 mg/kg by gavage): 22.92%; Dry-weight of thrombus ([4]; 100 mg/kg by gavage): 34.2 ± 13.1 mg; Wet-weight of thrombus ([4]; 100 mg/kg by gavage): 189.8 ± 52.3 mg; Inhibition (%) of dry-weight of thrombus ([4]; 100 mg/kg by gavage): 33.33%; Inhibition (%) of wet-weight of thrombus ([4]; 100 mg/kg by gavage): 26.77%; Dry-weight of thrombus ([4]; 200 mg/kg by gavage): 30.4 ± 13.9 mg; Wet-weight of thrombus ([4]; 200 mg/kg by gavage): 163.2 ± 64.4 mg; Inhibition (%) of dry-weight of thrombus ([4]; 200 mg/kg by gavage): 40.74%; Inhibition (%) of wet-weight of thrombus ([4]; 200 mg/kg by gavage): 37.04%; LD50 at 7 days (in vivo): 2680 mg/kg
